# Read-outs that look alike come from different tables or passages of the source.
# Legend:
# [1] = Experimental: During thermo-gravimetric analysis (TGA), the weight of a sample is measured very accurately as the sample is undergoing a temperature program (usually a gradual increase in temperature). Changes in the sample that result in weight differences will be detected, and can be correlated to temperature. This technique was used to investigate the onset temperatures of dehydration and degradation of the nicotine salt.
# Table 4 details the temperature program for this study. The sample was heated from 30 to 950° C. under nitrogen (inert gas) or air.
# [2] = remark: listed apart in the source
# Experimental: The sample weight was monitored for 20 minutes at probable extrusion temperatures of 50, 55 and 60° C. This duration is longer than expected process time for small batches including hold time in hoppers.
smiles,measurement,setting,value
CN1CCCC1c1cccnc1.O.O.O=C(O)C(O)C(O)C(=O)O (centres unmarked) [Nicotine bitartrate dihydrate],First Event Onset Temperature,[1]; Air purged sample,73.93 °C
same,Second Event Onset Temperature,[1]; Air purged sample,190.23 °C
same,First Event Onset Temperature,[1]; Nitrogen purged sample,72.54 °C
same,Second Event Onset Temperature,[1]; Nitrogen purged sample,190.78 °C
same,first TGA event inflection,[1]; scan 30 to 950 °C,82 °C
same,first TGA event onset,[1]; scan 30 to 950 °C,73 °C
same,second TGA event inflection,[1]; scan 30 to 950 °C,203 °C
same,"weight loss, first TGA event",[1]; scan 30 to 950 °C,about 4%
same,weight loss after isothermal hold,[2]; 20 minute hold at 50 °C,0.497%
same,weight loss after isothermal hold,[2]; 20 minute hold at 55 °C,0.678%
same,weight loss after isothermal hold,[2]; 20 minute hold at 60 °C,1.147%
